Assay results from ChEMBL document CHEMBL1156020, “Synthesis and antiviral activity of HCV NS3/4A peptidomimetic boronic acid inhibitors” (Bioorg Med Chem Lett, 2009).

Assays:
Hepatitis C virus [1] = assay: Inhibition of HCV1b con1 NS3/4A protease after 20 mins by FRET-based assay; parameters: species or system Hepacivirus hominis; settings: Con1, 20 min
Hepatitis C virus [2] = assay: Antiviral activity against HCV infected in human Huh-luc/neo-ET cells after 72 hrs by replicon assay; assay type: functional, organism-based, Hepacivirus hominis
[3] = Inhibition of HCV1a wild type NS3/4A protease after 20 mins by FRET-based assay; parameters: species or system Hepatitis C virus subtype 1a
Hepatitis C virus [4] = assay: Selectivity ratio of IC50 for HCV1b con1 wild type NS3/4A protease over IC50 for HCV1b con1 NS3/4A protease A156V mutant; parameters: species or system Hepacivirus hominis
Hepatitis C virus [5] = assay: Selectivity ratio of IC50 for HCV1b con1 wild type NS3/4A protease over IC50 for HCV1b con1 NS3/4A protease D168A mutant; parameters: species or system Hepacivirus hominis
Hepatitis C virus [6] = assay: Selectivity ratio of IC50 for HCV1b con1 wild type NS3/4A protease over IC50 for HCV1b con1 NS3/4A protease A156T mutant; parameters: species or system Hepacivirus hominis
Hepatitis C virus [7] = assay: Selectivity ratio of IC50 for HCV1b con1 wild type NS3/4A protease over IC50 for HCV1b con1 NS3/4A protease T54A mutant; parameters: species or system Hepacivirus hominis
[8] = Inhibition of HCV3a wild type NS3/4A protease after 20 mins by FRET-based assay; parameters: species or system Hepatitis C virus subtype 3a
[9] = Inhibition of HCV2a wild type NS3/4A protease after 20 mins by FRET-based assay; parameters: species or system Hepatitis C virus subtype 2a
Hepatitis C virus [10] = assay: Selectivity ratio of IC50 for HCV1b con1 wild type NS3/4A protease over IC50 for HCV1b con1 NS3/4A protease R155K mutant; parameters: species or system Hepacivirus hominis
Hepatitis C virus [11] = assay: Selectivity ratio of IC50 for HCV1b con1 wild type NS3/4A protease over IC50 for HCV1b con1 NS3/4A protease A156S mutant; parameters: species or system Hepacivirus hominis

Question: Which results are given for CCC[C@H](NC(=O)[C@@H]1C[C@@H](OC(=O)N2Cc3ccccc3C2)CN1C(=O)[C@@H](NC(=O)OCCN1CCCC1)C(C)(C)C)B1O[C@@H]2C[C@@H]3C[C@@H](C3(C)C)[C@]2(C)O1?
Answer: IC50 (Hepatitis C virus [1]): 5 nM; EC50 (Hepatitis C virus [2]): > 1000 nM

Question: What does the source list for CCC[C@H](NC(=O)[C@@H]1C[C@@H](OC(=O)N2Cc3ccccc3C2)CN1C(=O)[C@@H](NC(=O)OCC(C)C)C(C)(C)C)B1O[C@@H]2C[C@@H]3C[C@@H](C3(C)C)[C@]2(C)O1?
Answer: IC50 (Hepatitis C virus [1]): 0.3 nM; EC50 (Hepatitis C virus [2]): 54 nM

Question: Which IC50 (Hepatitis C virus [1]) does the source give for CCC[C@H](NC(=O)[C@@H]1C[C@@H](OC(=O)N2Cc3ccccc3C2)CN1C(=O)[C@@H](NS(C)(=O)=O)C(C)(C)C)B1O[C@@H]2C[C@@H]3C[C@@H](C3(C)C)[C@]2(C)O1 here?
Answer: 11 nM

Question: What about the EC50 (Hepatitis C virus [2]) of the same molecule?
Answer: > 1000 nM

Question: With CCC[C@H](NC(=O)[C@@H]1C[C@@H](OC(=O)N2Cc3ccccc3C2)CN1C(=O)[C@@H](NC(=O)OC(C)(C)C)C(C)(C)C)B1O[C@@H]2C[C@@H]3C[C@@H](C3(C)C)[C@]2(C)O1 as the molecule, how does the IC50 (Hepatitis C virus [1]) read?
Answer: 0.8 nM

Question: What about the EC50 (Hepatitis C virus [2]) of the same molecule?
Answer: 93 nM

Question: With CCC[C@H](NC(=O)[C@@H]1C[C@@H](OC(=O)N2Cc3ccccc3C2)CN1C(=O)[C@@H](NC(=O)NCCN(CC)CC)C(C)(C)C)B1O[C@@H]2C[C@@H]3C[C@@H](C3(C)C)[C@]2(C)O1 as the molecule, how does the IC50 (Hepatitis C virus [1]) read?
Answer: 27 nM

Question: And the EC50 (Hepatitis C virus [2])?
Answer: > 1000 nM

Question: For CC(C)(C)OC(=O)N[C@H](C(=O)N1C[C@H](OC(=O)N2Cc3ccccc3C2)C[C@H]1C(=O)N[C@@H](CC1CCC1)B(O)O)C(C)(C)C, which IC50 (Hepatitis C virus [1]) is on record?
Answer: 2 nM

Question: What about the EC50 (Hepatitis C virus [2]) of the same molecule?
Answer: 171 nM

Question: Which results are given for CC[C@H](NC(=O)[C@@H]1C[C@@H](OC(=O)N2Cc3ccccc3C2)CN1C(=O)[C@@H](NC(=O)OC(C)(C)C)C1CCCCC1)B(O)O?
Answer: IC50 [3]: 0.9 nM; Ratio IC50 (Hepatitis C virus [4]): 64; Ratio IC50 (Hepatitis C virus [5]): 47; Ratio IC50 (Hepatitis C virus [6]): 40; Ratio IC50 (Hepatitis C virus [7]): 69; IC50 (Hepatitis C virus [1]): 1 nM; IC50 [8]: 23 nM; IC50 [9]: 6 nM; Ratio IC50 (Hepatitis C virus [10]): 63; EC50 (Hepatitis C virus [2]): 71 nM; Ratio IC50 (Hepatitis C virus [11]): 4

Question: Which IC50 (Hepatitis C virus [1]) does the source give for CCC[C@H](NC(=O)[C@@H]1C[C@@H](OC(=O)N2Cc3ccccc3C2)CN1C(=O)[C@@H](NC(=O)C(O)C(C)(C)C)C(C)(C)C)B1O[C@@H]2C[C@@H]3C[C@@H](C3(C)C)[C@]2(C)O1 (some centres undefined) here?
Answer: 3 nM

Question: What about the EC50 (Hepatitis C virus [2]) of the same molecule?
Answer: > 1000 nM

Question: Which IC50 (Hepatitis C virus [1]) does the source give for CCC[C@H](NC(=O)[C@@H]1C[C@@H](OC(=O)N2Cc3ccccc3C2)CN1C(=O)[C@@H](NC(=O)OCC(C)(C)C)C(C)(C)C)B1O[C@@H]2C[C@@H]3C[C@@H](C3(C)C)[C@]2(C)O1 here?
Answer: 0.7 nM

Question: And the EC50 (Hepatitis C virus [2])?
Answer: 41 nM

Question: With CCC[C@H](NC(=O)[C@@H]1C[C@@H](OC(=O)N2Cc3ccccc3C2)CN1C(=O)[C@@H](NC(=O)OCC)C(C)(C)C)B1O[C@@H]2C[C@@H]3C[C@@H](C3(C)C)[C@]2(C)O1 as the molecule, how does the IC50 (Hepatitis C virus [1]) read?
Answer: 2 nM

Question: What about the EC50 (Hepatitis C virus [2]) of the same molecule?
Answer: 230 nM

Question: For CC(C)(C)OC(=O)N[C@H](C(=O)N1C[C@H](OC(=O)N2Cc3ccccc3C2)C[C@H]1C(=O)NC1(B(O)O)CC1)C1CCCCC1, which IC50 (Hepatitis C virus [1]) is on record?
Answer: 3350 nM

Question: For CCC[C@H](NC(=O)[C@@H]1C[C@@H](OC(=O)N2Cc3ccccc3C2)CN1C(=O)[C@@H](NC(=O)OC(C)(C)C)C(C)(C)C)B(O)O, which IC50 [3] is on record?
Answer: 2 nM

Question: And the “Ratio IC50” value (Hepatitis C virus [4])?
Answer: 158

Question: And the “Ratio IC50” value (Hepatitis C virus [5])?
Answer: 61

Question: And the “Ratio IC50” value (Hepatitis C virus [6])?
Answer: 70

Question: And the “Ratio IC50” value (Hepatitis C virus [7])?
Answer: 121

Question: What about the IC50 (Hepatitis C virus [1]) of the same molecule?
Answer: 1 nM

Question: What about the IC50 [8] of the same molecule?
Answer: 61 nM

Question: And the IC50 [9]?
Answer: 21 nM

Question: And the “Ratio IC50” value (Hepatitis C virus [10])?
Answer: 109

Question: What about the EC50 (Hepatitis C virus [2]) of the same molecule?
Answer: 69 nM

Question: And the “Ratio IC50” value (Hepatitis C virus [11])?
Answer: 5

Question: Which results are given for CCC[C@H](NC(=O)[C@@H]1C[C@@H](OC(=O)N2Cc3ccccc3C2)CN1C(=O)[C@@H](NC(=O)OC(C)(C)C)C1CCCCC1)B(O)O?
Answer: IC50 (Hepatitis C virus [1]): 2 nM; EC50 (Hepatitis C virus [2]): 110 nM

Question: With CCC[C@H](NC(=O)[C@@H]1C[C@@H](OC(=O)N2Cc3ccccc3C2)CN1C(=O)[C@@H](NC(=O)N[C@H](CN(C)S(C)(=O)=O)C(C)(C)C)C(C)(C)C)B(O)O as the molecule, how does the IC50 [3] read?
Answer: 0.3 nM

Question: What about the “Ratio IC50” value (Hepatitis C virus [4]) of the same molecule?
Answer: 12

Question: And the “Ratio IC50” value (Hepatitis C virus [5])?
Answer: <4

Question: And the “Ratio IC50” value (Hepatitis C virus [6])?
Answer: <4

Question: What about the “Ratio IC50” value (Hepatitis C virus [7]) of the same molecule?
Answer: 8

Question: What about the IC50 (Hepatitis C virus [1]) of the same molecule?
Answer: 0.5 nM

Question: And the IC50 [8]?
Answer: 0.9 nM

Question: What about the IC50 [9] of the same molecule?
Answer: 0.6 nM

Question: What about the “Ratio IC50” value (Hepatitis C virus [10]) of the same molecule?
Answer: 6

Question: What about the EC50 (Hepatitis C virus [2]) of the same molecule?
Answer: 25 nM

Question: And the “Ratio IC50” value (Hepatitis C virus [11])?
Answer: <4

Question: Which IC50 (Hepatitis C virus [1]) does the source give for CCC[C@H](NC(=O)[C@@H]1C[C@@H](OC(=O)N2Cc3ccccc3C2)CN1C(=O)[C@@H](N)C(C)(C)C)B1O[C@@H]2C[C@@H]3C[C@@H](C3(C)C)[C@]2(C)O1 here?
Answer: 3200 nM

Question: Which IC50 (Hepatitis C virus [1]) does the source give for CCC[C@H](NC(=O)[C@@H]1C[C@@H](OC(=O)N2Cc3ccccc3C2)CN1C(=O)[C@@H](NC(=O)OCCF)C(C)(C)C)B1O[C@@H]2C[C@@H]3C[C@@H](C3(C)C)[C@]2(C)O1 here?
Answer: 2 nM

Question: What about the EC50 (Hepatitis C virus [2]) of the same molecule?
Answer: 408 nM

Question: Which results are given for CC[C@H](NC(=O)[C@@H]1C[C@@H](OC(=O)N2Cc3ccccc3C2)CN1C(=O)[C@@H](NC(=O)OC(C)(C)C)C(C)(C)C)B(O)O?
Answer: IC50 (Hepatitis C virus [1]): 2 nM; EC50 (Hepatitis C virus [2]): 98 nM
